Laboratory results from patent US20240016769A1, “Method for preparing compound or biological drug enhancing CNPase activity for treating heart diseases” (ZHUHAI YUANZHI HEALTH TECH CO. LTD., priority 2020, published 2024).

Test system: CNPase
Experiment: CNPase enzyme activity in Ang-II induced cardiac hypertrophy cells
Type: cell-based
Settings: n = 3
Source text: The enzyme activity of CNPase in hypertrophic myocardium was detected by the detection method of calf intestinal alkaline phosphatase activity.

## C[C@@]12CC[C@@H]3[C@@](CC[C@H]4[C@@]3(C)CCC[C@@]4(C)C(=O)[O-])(CC1=O)C2.[Na+] [STVNa, sodium isosteviol]
STVNa + Ang II, cardiac hypertrophy induced by Ang-II, Control 1.000, Ang-II alone 0.2266
  CNPase activity: 0.9629 ± 0.411
STVNa + Ang II, cardiac hypertrophy induced by Ang-II, Control 1.000, Ang-II alone 0.2266, listed as sodium isosteviol
  CNPase activity: enhances CNPase activity
STVNa alone, no Ang-II, Control 1.000
  CNPase activity: 0.9326 ± 0.241
